Data set [1] relates to selectin. The conditions noted are these: cited from earlier work; for blocking of selectin binding to sLe^x: in vitro.
The test system of data set [2] is E-selectin production in irradiated HUVEC. The experiment in a line: x-ray-mediated E-selectin induction in HUVEC after inhibitor pretreatment (antibody labeling, flow cytometry). The following applies: H7 100 nM, staurosporin 10 nM, BPB 10 μM, mepacrine 20 μM added prior to irradiation. Type of data set: cell-based, human. The method, then: HUVEC and HMEC cells were grown to 90% confluence and irradiated with a GE Maxitron x-ray generator as previously described (Hallahan et al., 1989). Cells were removed from flasks with 0.1% collagenase, 0.01% EDTA, 0.25% BSA and pelleted in 12×75 mm polystyrene tubes. The supernatant was discarded and the cells were incubated with primary IgG1 antibody (mouse anti-human ICAM-1 and E-selectin-1; R&D Systems, Inc., Minneapolis,MN) for 20 min at 4° C.
The cells were then rinsed with isotonic phosphate buffered saline (PBS), pelleted and incubated with FITC-conjugated secondary antibody (goat anti-mouse IgG1) for 20 min at 4° C. The fluorescently labeled cells were rinsed in PBS and fixed in PBS containing 0.01% paraformaldehyde.
Fluorescence activated cell sorting (FACS) analysis was utilized for quantitation of receptor expression of ICAM-1 and E-selectin on HUVEC. The Becton Dickinson FACScanner was used with Lysis II software. Forward and side scatter fluorescence data identified 10,000 viable endothelial cells in each experimental group for unlabeled cells, nonspecific-antibody-labelled cells, ICAM-1-labeled cells and E-selectin-labeled cells. Fluorescence data were then accumulated on each group of 10,000 cells at 530 nm, the wavelength emitted by FITC.
The fluorescence data were expressed as histograms of events versus log fluorescence and analyzed in comparison to the autofluorescence of unlabelled cells as well as the fluorescence of baseline ICAM-1 labelled or E-selectin-1 labeled cells as appropriate. During inhibition studies, PKC inhibitors H7 100 nM and staurosporin 10 nM or Phospholipase A2 inhibitors BPB 10 μM or mepacrine 20 μM were added to cell cultures 30 min prior to irradiation.
PKC participates in both NFkB activation and signal transduction initiated by ionizing radiation (Hallahan et al., 1991). Furthermore, PLA2 participates in free-radical and x-ray-mediated PKC activation and gene induction (Hallahan et al., 1991). To determine whether PLA2 or PKC activation is required for radiation-mediated E-selectin induction, the inventors added the PKC inhibitors H7 and staurosporin or the PLA2 inhibitors BPB or mepacrine to HUVEC […] prior to irradiation. Following irradiation, cells were scraped and E-selectin was quantified by antibody labeling and flow cytometry.

For data set [3], the system named is HL60 cells / irradiated HUVECs. Kind of data set: adherence of HL60 cells to irradiated HUVECs. It counts as cell-based, human. The following applies: 1 mM; added 4 h after 10 Gy irradiation, 30 min prior to HL60 cells. As for the experimental part:
Human leukemia cell line HL60 has been used to quantify leukocyte adhesion to endothelial cells (Jones et al., 1995). HL60 cells were added to HUVECs after exposure to 10 Gy or cells treated with otherwise identical conditions without irradiation. Cultures were washed and cells were counted using a hemocytometer. […] Glycyrrhizin, carminic acid or sialyl Lewis X (1 mM each, SIGMA) were added to irradiated cells at 4 h after irradiation and 30 min prior to the addition of HL60 cells.

Data set [4] relates to E-selectin. The conditions noted are these: competitive binding assay, cited from earlier work.
The conditions of data set [5]: rats, oral; cited from earlier work.

The source of these data is patent US5962424A, “Methods and compositions for targeting selectins” (Arch Development Corporation, priority 1995, dated 1999).

The structures appear in SMILES notation.

As a reminder, the IC50 is the concentration at which inhibition is half-maximal. As for `CC1(C)[C@@H](O)CC[C@]2(C)[C@H]3C(=O)C=C4[C@@H]5C[C@@](C)(C(=O)O)CC[C@]5(C)CC[C@@]4(C)[C@]3(C)CC[C@@H]12` [18-β-glycyrrhetinic acid], the IC50 in data set [1] (read-out: IC50 (blocking selectin activity)) was more than 2000 µM.

Take `CC1CNCCN1S(=O)(=O)c1cccc2cnccc12` (stereo not shown) [H7]: the “radiation-mediated E-selectin production” value in data set [2] is given as “not attenuated”.

With `CN[C@@H]1C[C@H]2O[C@@](C)([C@@H]1OC)n1c3ccccc3c3c4c(c5c6ccccc6n2c5c31)C(=O)NC4` [staurosporin], in data set [2], the “radiation-mediated E-selectin production” value is given as “not attenuated”.

Turning to `Cc1c(C(=O)O)c(O)cc2c1C(=O)c1c(O)c([C@@H]3O[C@H](CO)[C@@H](O)[C@H](O)[C@H]3O)c(O)c(O)c1C2=O` [carminic acid], the “adherence of HL60 cells to irradiated HUVECs” value (shortened to “adherence of HL60 cells”) in data set [3] is on record as “blocked the adherence”. The “blocking of selectin binding to sLe^x” value in data set [1] is given as “blocked selectin binding at concentrations comparable to those of glycyrrhizin”.

On to `COC(=O)CCCCCCCCO[C@@H]1O[C@H](CO)[C@@H](O[C@@H]2O[C@@H](C)[C@@H](O)[C@@H](O)[C@@H]2O)[C@H](O[C@@H]2O[C@H](CO)[C@H](O)[C@H](O[C@]3(C(=O)O)C[C@H](O)[C@@H](NC(C)=O)[C@H]([C@H](O)[C@H](O)CO)O3)[C@H]2O)[C@H]1N` [amino substituted sLe^a], for which the “activity relative to the reducing tetrasaccharide sLe^x” value in data set [4] is recorded as 36 fold. Besides, in data set [4] (read-out: IC50 (blocking of E-selectin)), the IC50 was 21 ± 3 µM.

In the case of `CCN(CC)CCCC(C)Nc1c2ccc(Cl)cc2nc2ccc(OC)cc12` (stereo not shown) [mepacrine], the “radiation-mediated E-selectin production” value in data set [2] is “not attenuated”.

For the compound `CC1(C)[C@@H](O[C@H]2O[C@H](C(=O)O)[C@@H](O)[C@H](O)[C@H]2O[C@@H]2O[C@H](C(=O)O)[C@@H](O)[C@H](O)[C@H]2O)CC[C@]2(C)[C@H]3C(=O)C=C4[C@@H]5C[C@@](C)(C(=O)O)CC[C@]5(C)CC[C@@]4(C)[C@]3(C)CC[C@@H]12` [Glycyrrhizin], in data set [3], the “adherence of HL60 cells” value was “blocked the adherence”. For the same compound, the “blocking of selectin binding to sLe^x” value in data set [1] is listed as “block selectin binding”. For the same compound, in data set [5], the “absorption from the gut” value is recorded as “poorly absorbed”.

`O=C(CBr)c1ccc(Br)cc1` [BPB]: in data set [2], the “radiation-mediated E-selectin production” value is “not attenuated”.

In the case of `CC(=O)N[C@H]1[C@H]([C@H](O)[C@H](O)CO)O[C@@](O[C@H]2[C@@H](O)[C@@H](CO)O[C@@H](O[C@H]3[C@H](O[C@@H]4O[C@@H](C)[C@@H](O)[C@@H](O)[C@@H]4O)[C@@H](NC(C)=O)C(O)O[C@@H]3CO)[C@@H]2O)(C(=O)O)C[C@@H]1O` (stereo partly shown) [sialyl Lewis X, Neu5Acα2-3Galβ1-4[Fucα1-3]GlcNAc], the “adherence of HL60 cells” value in data set [3] was “blocked the adherence”.
